In patent publication US20070259923A1, “MGluR5 modulators IV” (AstraZeneca AB, priority 2006, published 2007):

Key:
human mGluR5d = molecular target: T1, human mGluR5d (Homo sapiens, UniProt P41594); test: FLIPR assay, mGluR5 antagonism (intracellular calcium mobilization); assay type: cell-based; conditions: cells expressing human mGluR5d; read-out: FLIPR hmGluR5d
T1 construct: expressed in transfected cells; the IP3 assay names GHEK cells stably expressing human mGluR5d
From the text: The properties of the compounds of the invention can be analyzed using standard assays for pharmacological activity. Examples of glutamate receptor assays are well known in the art as described in for example Aramori et al., Neuron 8:757 (1992), Tanabe et al., Neuron 8:169 (1992), Miller et al., J. Neuroscience 15: 6103 (1995), Balazs, et al., J. Neurochemistry 69:151 (1997). The methodology described in these publications is incorporated herein by reference. Conveniently, the compounds of the invention can be studied by means of an assay (FLIPR) that measures the mobilization of intracellular calcium, [Ca^2+]i in cells expressing mGluR5 or another assay (IP3) that measures inositol phosphate turnover.
Cells expressing human mGluR5d as described in WO97/05252 are seeded at a density of 100,000 cells per well on collagen coated clear bottom 96-well plates with black sides and experiments are done 24 h following seeding. […] The fluorescence signal is sampled 50 times at 1 second intervals followed by 3 samples at 5 second intervals immediately after each of the two additions. Responses are measured as the difference between the peak height of the response to agonist, less the background fluorescence within the sample period. […]

[1] = Determination of brain to plasma ratio in rat; assay type: in vivo; conditions: brain and plasma, female Sprague Dawley rats, read-out: Brain/Plasma Ratio of compound in Rat
Description: Brain to plasma ratios are estimated in female Sprague Dawley rats. The compound is dissolved in water or another appropriate vehicle. For determination of brain to plasma ratio the compound is administrated as a subcutaneous, or an intravenous bolus injection, or an intravenous infusion, or an oral administration. At a predetermined time point after the administration a blood sample is taken with cardiac puncture. The rat is terminated by cutting the heart open, and the brain is immediately retained. The blood samples are collected in heparinized tubes and centrifuged within 30 minutes, in order to separate the plasma from the blood cells. The plasma is transferred to 96-well plates and stored at −20° C. until analysis. The brains are divided in half, and each half is placed in a pre-tarred tube and stored at −20° C. until analysis. Prior to the analysis, the brain samples are thawed and 3 ml/g brain tissue of distilled water is added to the tubes. The brain samples are sonicated in an ice bath until the samples are homogenized. Both brain and plasma samples are precipitated with acetonitrile. After centrifugation, the supernatant is diluted with 0.2% formic acid. […] After reconstitution of the residuals the samples are ready for injection onto the HPLC column.

T1 sequence (P41594 21-942 isoform P41594-3 limits assumed): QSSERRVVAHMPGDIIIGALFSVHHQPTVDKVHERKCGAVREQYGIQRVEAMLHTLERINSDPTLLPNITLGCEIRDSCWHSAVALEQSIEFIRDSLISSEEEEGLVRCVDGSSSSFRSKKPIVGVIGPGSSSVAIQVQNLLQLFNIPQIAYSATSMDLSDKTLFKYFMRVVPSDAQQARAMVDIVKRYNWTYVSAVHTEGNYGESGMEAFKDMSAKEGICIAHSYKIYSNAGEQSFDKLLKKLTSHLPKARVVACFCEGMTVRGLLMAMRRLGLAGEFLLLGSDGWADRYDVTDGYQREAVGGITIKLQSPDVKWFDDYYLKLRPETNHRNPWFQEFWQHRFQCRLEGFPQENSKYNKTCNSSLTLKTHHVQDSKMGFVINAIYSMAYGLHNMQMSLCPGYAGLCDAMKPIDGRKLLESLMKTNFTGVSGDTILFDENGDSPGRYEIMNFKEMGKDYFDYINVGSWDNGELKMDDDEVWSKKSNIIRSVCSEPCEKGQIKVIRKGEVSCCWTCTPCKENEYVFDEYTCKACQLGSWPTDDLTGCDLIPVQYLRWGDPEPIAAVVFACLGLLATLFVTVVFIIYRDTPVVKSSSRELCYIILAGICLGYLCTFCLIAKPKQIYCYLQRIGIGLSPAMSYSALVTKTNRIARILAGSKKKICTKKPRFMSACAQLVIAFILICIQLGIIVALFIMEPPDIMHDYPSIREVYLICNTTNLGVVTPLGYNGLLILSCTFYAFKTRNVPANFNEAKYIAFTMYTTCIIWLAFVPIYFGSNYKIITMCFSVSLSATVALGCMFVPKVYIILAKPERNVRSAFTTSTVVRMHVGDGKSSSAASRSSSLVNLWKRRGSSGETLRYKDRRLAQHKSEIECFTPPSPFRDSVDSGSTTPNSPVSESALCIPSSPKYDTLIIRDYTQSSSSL

IC50 (human mGluR5d) [nM]	Kp [1]	SMILES
47	0.06	Cc1cc(-c2nnc(N3CCC[C@@H]3c3cc(-c4cccc(C#N)c4)on3)n2C)ccn1 [Example 12.4, 3-(3-{(R)-1-[4-Methyl-5-(2-methyl-pyridin-4-yl)-4H-[1,2,4]triazol-3-yl]-pyrrolidin-2-yl}-isoxazol-5-yl)-benzonitrile]
86	0.05	Cn1c(-c2cccnc2)nnc1N1CCC[C@@H]1c1cc(-c2cccc(C#N)c2)on1 [Example 12.6, 3-{3-[(R)-1-(4-Methyl-5-pyridin-3-yl-4H-[1,2,4]triazol-3-yl)-pyrrolidin-2-yl]-isoxazol-5-yl}-benzonitrile]
